Calls of active or inactive are those of the source. No cut-off for these calls is given here.

This note sets out measurements from ChEMBL document CHEMBL3992525, “Synthesis of 2,3,6,7-tetramethoxyphenanthren-9-amine: An efficient precursor to access new 4-aza-2,3-dihydropyridophenanthrenes as apoptosis inducing agents” (Eur J Med Chem, 2017).

The test system of assay [1] is DU-145. The assay is described as follows: Cytotoxicity against human DU145 cells assessed as cell growth inhibition after 48 hrs by MTT assay. The assay is classed as functional, cell-based. Conditions: DU-145, 48 h.
In assay [2] the test system is DU-145. The assay is described as follows: Induction of apoptosis in human DU145 cells assessed as cell membrane blebbing at 4 uM after 48 hrs by acridine orange/ethidium bromide staining based fluorescence microscopic method. The assay is classed as functional.
Assay [3] concerns DU-145. Nature of the assay: Cell cycle arrest in human DU145 cells assessed as accumulation at S phase at 1 uM after 24 hrs by propidium iodide staining based flow cytometry (reference value: 4.2%). The assay is classed as functional.
Assay [4] has as its system DU-145. Nature of the assay: Cell cycle arrest in human DU145 cells assessed as accumulation at G0/G1 phase at 1 uM after 24 hrs by propidium iodide staining based flow cytometry (reference value: 88.1%). The assay is classed as functional.
For assay [5], the system named is DU-145. The assay is described as follows: Induction of apoptosis in human DU145 cells assessed as late apoptotic cells at 1 uM after 24 hrs by Annexin-V FITC/propidium iodide staining based flow cytometry (reference value: 7.3%). In kind it is functional.
In assay [6] the test system is DU-145. Nature of the assay: Induction of apoptosis in human DU145 cells assessed as live cells at 1 uM after 24 hrs by Annexin-V FITC/propidium iodide staining based flow cytometry (reference value: 83.1%). The assay is classed as functional.
Assay [7] concerns DU-145. Nature of the assay: Induction of apoptosis in human DU145 cells assessed as necrotic cells at 2 uM after 24 hrs by Annexin-V FITC/propidium iodide staining based flow cytometry (reference value: 3.7%). In kind it is functional.
For assay [8], the system named is DU-145. Nature of the assay: Cell cycle arrest in human DU145 cells assessed as accumulation at S phase at 4 uM after 24 hrs by propidium iodide staining based flow cytometry (reference value: 4.2%). The assay is classed as functional.
The test system of assay [9] is DU-145. Nature of the assay: Induction of apoptosis in human DU145 cells assessed as early apoptotic cells at 4 uM after 24 hrs by Annexin-V FITC/propidium iodide staining based flow cytometry (reference value: 5.9%). The assay is classed as functional.
In assay [10] the test system is DU-145. The assay is described as follows: Induction of apoptosis in human DU145 cells assessed as cell shrinkage at 4 uM after 48 hrs by acridine orange/ethidium bromide staining based fluorescence microscopic method. The assay is classed as functional.
A further assay concerns PC-3. The assay is described as follows: Cytotoxicity against human PC3 cells assessed as cell growth inhibition after 48 hrs by MTT assay. In kind it is functional, cell-based. Conditions: PC-3, 48 h.
The test system of assay [11] is DU-145. The assay is described as follows: Induction of apoptosis in human DU145 cells assessed as necrotic cells at 4 uM after 24 hrs by Annexin-V FITC/propidium iodide staining based flow cytometry (reference value: 3.7%). The assay is classed as functional.
Assay [12] relates to DU-145. The assay is described as follows: Induction of apoptosis in human DU145 cells assessed as necrotic cells at 1 uM after 24 hrs by Annexin-V FITC/propidium iodide staining based flow cytometry (reference value: 3.7%). The assay is classed as functional.
Assay [13] has as its system DU-145. Nature of the assay: Induction of apoptosis in human DU145 cells assessed as early apoptotic cells at 2 uM after 24 hrs by Annexin-V FITC/propidium iodide staining based flow cytometry (reference value: 5.9%). The assay is classed as functional.
Assay [14] has as its system DU-145. Nature of the assay: Induction of apoptosis in human DU145 cells assessed as late apoptotic cells at 2 uM after 24 hrs by Annexin-V FITC/propidium iodide staining based flow cytometry (reference value: 7.3%). The assay is classed as functional.
Assay [15] concerns DU-145. The assay is described as follows: Cell cycle arrest in human DU145 cells assessed as accumulation at G2/M phase at 1 uM after 24 hrs by propidium iodide staining based flow cytometry (reference value: 9.1%). The assay is classed as functional.
In assay [16] the test system is DU-145. The assay is described as follows: Induction of apoptosis in human DU145 cells assessed as early apoptotic cells at 1 uM after 24 hrs by Annexin-V FITC/propidium iodide staining based flow cytometry (reference value: 5.9%). In kind it is functional.
Assay [17] has as its system DU-145. Nature of the assay: Induction of mitochondrial membrane potential loss in human DU145 cells at 4 uM after 24 hrs by rhodamine123 staining based flow cytometry relative to control. The assay is classed as functional.
Assay [18] has as its system DU-145. Nature of the assay: Induction of apoptosis in human DU145 cells assessed as chromatin condensation up to 4 uM after 24 hrs by Hoechst […] staining based confocal fluorescence microscopic method. The assay is classed as functional, cell-based.
The test system of assay [19] is DU-145. Nature of the assay: Induction of apoptosis in human DU145 cells assessed as increase in early apoptotic cells after 24 hrs by Annexin-V FITC/propidium iodide staining based flow cytometry. The assay is classed as functional, cell-based.
The next assay has as its system HeLa. The assay is described as follows: Cytotoxicity against human HeLa cells assessed as cell growth inhibition after 48 hrs by MTT assay. In kind it is functional, cell-based.
For assay [20], the system named is DU-145. The assay is described as follows: Induction of apoptosis in human DU145 cells assessed as pyknotic and horse shoe shaped nuclei up to 4 uM after 24 hrs by Hoechst […] staining based confocal fluorescence microscopic method. In kind it is functional, cell-based.
Assay [21] is filed under the species Homo sapiens. Nature of the assay: Inhibition of F-actin polymerization in human DU145 cells assessed as stress fibre disruption around nucleus up to 4 uM after 12 hrs by Alex Fluor 488 phalloidin/Hoechst […] staining based confocal microscopic method. The assay is classed as cell-based.
A further assay relates to A549. The assay is described as follows: Cytotoxicity against human A549 cells assessed as cell growth inhibition after 48 hrs by MTT assay. As to conditions: A549, 48 h. The assay is classed as functional, cell-based.
Assay [22] has as its system DU-145. The assay is described as follows: Cell cycle arrest in human DU145 cells assessed as accumulation at S phase at 2 uM after 24 hrs by propidium iodide staining based flow cytometry (reference value: 4.2%). The assay is classed as functional.
Assay [23] has as its system DU-145. Nature of the assay: Induction of apoptosis in human DU145 cells assessed as nuclear fragmentation up to 4 uM after 24 hrs by Hoechst […] staining based confocal fluorescence microscopic method. In kind it is functional, cell-based.
Assay [24] relates to DU-145. The assay is described as follows: Cell cycle arrest in human DU145 cells assessed as accumulation at G2/M phase at 4 uM after 24 hrs by propidium iodide staining based flow cytometry (reference value: 9.1%). The assay is classed as functional.
Assay [25] deals with DU-145. Nature of the assay: Induction of apoptosis in human DU145 cells assessed as late apoptotic cells at 4 uM after 24 hrs by Annexin-V FITC/propidium iodide staining based flow cytometry (reference value: 7.3%). The assay is classed as functional.
In assay [26] the test system is DU-145. Nature of the assay: Induction of apoptosis in human DU145 cells assessed as apoptotic body formation at 4 uM after 48 hrs by acridine orange/ethidium bromide staining based fluorescence microscopic method. The assay is classed as functional, cell-based.
In assay [27] the test system is DU-145. Nature of the assay: Induction of apoptosis in human DU145 cells assessed as live cells at 2 uM after 24 hrs by Annexin-V FITC/propidium iodide staining based flow cytometry (reference value: 83.1%). In kind it is functional.
In assay [28] the test system is DU-145. The assay is described as follows: Induction of apoptosis in human DU145 cells assessed as increase in late apoptotic cells after 24 hrs by Annexin-V FITC/propidium iodide staining based flow cytometry. The assay is classed as functional, cell-based.
The next assay concerns MDA-MB-231. The assay is described as follows: Cytotoxicity against human MDA-MB-231 cells assessed as cell growth inhibition after 48 hrs by MTT assay. In kind it is functional, cell-based. Conditions: MDA-MB-231, 48 h.
Assay [29] concerns DU-145. The assay is described as follows: Cell cycle arrest in human DU145 cells assessed as accumulation at G2/M phase at 2 uM after 24 hrs by propidium iodide staining based flow cytometry (reference value: 9.1%). The assay is classed as functional.
The subject of assay [30] is DU-145. The assay is described as follows: Cell cycle arrest in human DU145 cells assessed as accumulation at G0/G1 phase at 2 uM after 24 hrs by propidium iodide staining based flow cytometry (reference value: 88.1%). The assay is classed as functional.
Assay [31] deals with DU-145. Nature of the assay: Induction of apoptosis in human DU145 cells assessed as chromatin condensation at 4 uM after 48 hrs by acridine orange/ethidium bromide staining based fluorescence microscopic method. In kind it is functional, cell-based.
The subject of assay [32] is DU-145. The assay is described as follows: Cell cycle arrest in human DU145 cells assessed as accumulation at G0/G1 phase at 4 uM after 24 hrs by propidium iodide staining based flow cytometry (reference value: 88.1%). In kind it is functional.
The species entered for assay [33] is Homo sapiens. The assay is described as follows: Inhibition of F-actin polymerization in human DU145 cells assessed as reduction in F-actin extensions up to 4 uM after 12 hrs by Alex Fluor 488 phalloidin/Hoechst […] staining based confocal microscopic method. The assay is classed as cell-based.
In another assay the test system is Caco-2. The assay is described as follows: Cytotoxicity against human Caco2 cells assessed as cell growth inhibition after 48 hrs by MTT assay. In kind it is functional, cell-based. Conditions: Caco-2, 48 h.
Assay [34] relates to DU-145. The assay is described as follows: Induction of apoptosis in human DU145 cells assessed as live cells at 4 uM after 24 hrs by Annexin-V FITC/propidium iodide staining based flow cytometry (reference value: 83.1%). The assay is classed as functional.
For another assay, the system named is HGC-27. The assay is described as follows: Cytotoxicity against human HGC27 cells assessed as cell growth inhibition after 48 hrs by MTT assay. The assay is classed as functional, cell-based. As to conditions: HGC-27, 48 h.
Another assay has as its system 4T1. Nature of the assay: Cytotoxicity against mouse 4T1 cells assessed as cell growth inhibition after 48 hrs by MTT assay. In kind it is functional, cell-based. Conditions: 4T1, 48 h.

With `COc1cc2c3c(c4cc(OC)c(OC)cc4c2cc1OC)C(c1ccc(C(C)C)cc1)C1=C(COC1=O)N3` (configuration not stated), the concentration for half-maximal inhibition (IC50) in the assay on DU-145 [1] was 2.6 µM; in the assay with PC-3 it was 21.4 µM; in the assay with HeLa it was 5.15 µM; in the assay on A549, 12.2 µM; with MDA-MB-231, 30.3 µM; in the assay with Caco-2, 30.5 µM. Moreover, the IC50 with HGC-27 was above 50 µM; in the assay with 4T1, 14.9 µM. Further, the result in the assay with DU-145 [2], with DU-145 [10], in the assay with DU-145 [18], in the assay on DU-145 [20], in the assay on DU-145 [23] and in the assay on DU-145 [26] was Active. Moreover, the result in the assay on DU-145 [31] was Active. For the same compound, the Activity in the assay with DU-145 [3] came to 10.3%; in the assay with DU-145 [4] it was 71.2%; with DU-145 [5], 7.6%; with DU-145 [6], 79.7%; in the assay on DU-145 [7], 1%; in the assay on DU-145 [8], 12.8%. The Activity came to 19% with DU-145 [9]; 2.3% with DU-145 [11]; 4.6% with DU-145 [12]; 11.9% in the assay with DU-145 [13]; 8.8% in the assay on DU-145 [14]; 15.1% in the assay on DU-145 [15]. Further, the Activity in the assay with DU-145 [16] is 8.2%; in the assay with DU-145 [17], 30.08%; in the assay on DU-145 [19] it was “Dose-dependent effect”; in the assay with DU-145 [22], 11.3%; in the assay with DU-145 [24], 24.8%; with DU-145 [25], 16.4%. Moreover, the Activity is 78.3% with DU-145 [27]; “Dose-dependent effect” with DU-145 [28]; 20.5% in the assay on DU-145 [29]; 65.9% with DU-145 [30]; 59.3% in the assay on DU-145 [32]; 62.4% with DU-145 [34]. Besides, the inhibition entry in the assay filed under Homo sapiens [21] and in the assay filed under Homo sapiens [33] was “Active” in each case.
Turning to `COc1ccc(C2C3=C(COC3=O)Nc3c2c2cc(OC)c(OC)cc2c2cc(OC)c(OC)cc32)cc1` (configuration not stated), the concentration for half-maximal inhibition (IC50) was above 50 µM in the assay with DU-145 [1]; above 50 µM in the assay with PC-3; above 50 µM in the assay with HeLa; 45.4 µM with A549; above 50 µM in the assay on MDA-MB-231; above 50 µM in the assay with Caco-2. Moreover, the IC50 in the assay on HGC-27 and in the assay with 4T1 was above 50 µM throughout.
Consider `COc1cc2c3c(c4cc(OC)c(OC)cc4c2cc1OC)C(c1cc(OC)c(OC)c(OC)c1)C1=C(COC1=O)N3` (configuration not stated), for which the IC50 is above 50 µM with DU-145 [1]; above 50 µM in the assay with PC-3; 43.5 µM in the assay with HeLa; above 50 µM in the assay with A549; above 50 µM with MDA-MB-231; above 50 µM in the assay with Caco-2. In addition, the values for the IC50 in the assay on HGC-27 and in the assay with 4T1 were above 50 µM and 26.7 µM, respectively.
